In PubChem BioAssay AID248 (DTP/NCI, 2004):
Toxic doses and inconclusive results are not listed. Rule as the data show it: active = T/C of 150% or more; inactive = T/C below 125%.

System: L1210 leukemia ip in BDF1 mice, survival T/C
Test: NCI In Vivo Anticancer Drug Screen. Data for tumor model L1210 Leukemia (intraperitoneal) in B6D2F1 (BDF1) mice
Details: endpoint: mean survival time, higher = longer survival
Outline: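 Survival endpoint. Drug-treated group vs vehicle group, expressed as T divided by C. Tumor passaged by transplantation.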

[1] = dose: 100.0 mg/kg/injection, schedule: Q04DX002 (ip), vehicle: Klucel (hydroxypropylcellulose) (HPC)
[2] = dose: 200.0 mg/kg/injection, schedule: Q04DX002 (ip), vehicle: Klucel (hydroxypropylcellulose) (HPC)
[3] = dose: 100.0 mg/kg/injection, schedule: Q01DX001 (ip), vehicle: Klucel (hydroxypropylcellulose) (HPC)
[4] = dose: 100.0 mg/kg/injection, schedule: Q01DX009 (ip), vehicle: saline
[5] = dose: 100.0 mg/kg/injection, schedule: Q04DX003 (ip), vehicle: saline
[6] = dose: 200.0 mg/kg/injection, schedule: Q01DX001 (ip), vehicle: Klucel (hydroxypropylcellulose) (HPC)
[7] = dose: 200.0 mg/kg/injection, schedule: Q01DX009 (ip), vehicle: saline
[8] = dose: 200.0 mg/kg/injection, schedule: Q04DX003 (ip), vehicle: saline
[9] = dose: 100.0 mg/kg/injection, schedule: Q01DX001 (ip), vehicle: carboxymethylcellulose (CMC)
[10] = dose: 200.0 mg/kg/injection, schedule: Q01DX001 (ip), vehicle: carboxymethylcellulose (CMC)
[11] = dose: 400.0 mg/kg/injection, schedule: Q01DX001 (ip), vehicle: carboxymethylcellulose (CMC)
[12] = dose: 100.0 mg/kg/injection, schedule: Q01DX001 (ip), vehicle: saline
[13] = dose: 200.0 mg/kg/injection, schedule: Q01DX001 (ip), vehicle: saline
[14] = dose: 400.0 mg/kg/injection, schedule: Q01DX001 (ip), vehicle: saline
[15] = dose: 100.0 mg/kg/injection, schedule: Q04DX003 (ip), vehicle: Klucel (hydroxypropylcellulose) (HPC)
[16] = dose: 200.0 mg/kg/injection, schedule: Q04DX003 (ip), vehicle: Klucel (hydroxypropylcellulose) (HPC)
[17] = dose: 400.0 mg/kg/injection, schedule: Q04DX003 (ip), vehicle: Klucel (hydroxypropylcellulose) (HPC)
[18] = dose: 100.0 mg/kg/injection, schedule: Q01DX009 (ip), vehicle: Klucel (hydroxypropylcellulose) (HPC)
[19] = dose: 200.0 mg/kg/injection, schedule: Q01DX009 (ip), vehicle: Klucel (hydroxypropylcellulose) (HPC)

Measured: T/C

COc1ccc(NC(=O)NCc2ccc(C)c(C)c2)cc1
inactive: [1] 118 % of control | [2] 96 % of control | dose: 400.0 mg/kg/injection, schedule: Q04DX002 (ip), vehicle: Klucel (hydroxypropylcellulose) (HPC) 104 % of control

CCOc1cc[n+]([O-])cc1
inactive: dose: 50.0 mg/kg/injection, schedule: Q01DX009 (ip), vehicle: saline 90 % of control | [3] 96 % of control | [4] 90 % of control | [5] 100 % of control | [6] 108 % of control | [7] 90 % of control | [8] 96 % of control

O=C(Nc1ccc(S(=O)(=O)F)cc1)c1ccc(C(=O)Nc2ccc(S(=O)(=O)F)cc2)cc1
inactive: [9] 102 % of control | [10] 101 % of control | [11] 96 % of control

COc1ccc(-c2ccc(CC(N)=O)cc2)cc1Cl
inactive: [9] 91 % of control | [10] 94 % of control | [11] 89 % of control

CC(=O)Oc1c2c(n3c1CCC3)CC(C)CC2=O (configuration not stated)
inactive: dose: 50.0 mg/kg/injection, schedule: Q04DX002 (ip), vehicle: Klucel (hydroxypropylcellulose) (HPC) 97 % of control | [1] 97 % of control | [2] 102 % of control

O=C(O)C/C=C/C(=O)NCc1cccnc1
inactive: [12] 97 % of control | [13] 97 % of control | [14] 88 % of control

NC(=O)Cc1ccc2c(c1)[nH]c1ccccc12
inactive: [3] 96 % of control | [15] 102 % of control | [6] 94 % of control | [16] 105 % of control | dose: 400.0 mg/kg/injection, schedule: Q01DX001 (ip), vehicle: Klucel (hydroxypropylcellulose) (HPC) 100 % of control | [17] 103 % of control

CC(=O)Nc1cccc2cccnc12
inactive: dose: 12.5 mg/kg/injection, schedule: Q01DX009 (ip), vehicle: saline with Tween-80 92 % of control | dose: 25.0 mg/kg/injection, schedule: Q01DX009 (ip), vehicle: saline with Tween-80 95 % of control | dose: 50.0 mg/kg/injection, schedule: Q01DX009 (ip), vehicle: saline with Tween-80 90 % of control | dose: 75.0 mg/kg/injection, schedule: Q01DX001 (ip), vehicle: other 104 % of control | dose: 75.0 mg/kg/injection, schedule: Q01DX009 (ip), vehicle: other 98 % of control | dose: 75.0 mg/kg/injection, schedule: Q01DX009 (ip), vehicle: saline with Tween-80 87 % of control | [18] 90 % of control | [4] 93 % of control | dose: 100.0 mg/kg/injection, schedule: Q04DX003 (ip), vehicle: saline with Tween-80 107 % of control | [5] 108 % of control | dose: 150.0 mg/kg/injection, schedule: Q01DX001 (ip), vehicle: other 103 % of control | [19] 93 % of control | [7] 95 % of control | [8] 106 % of control | dose: 300.0 mg/kg/injection, schedule: Q01DX001 (ip), vehicle: other 94 % of control | dose: 400.0 mg/kg/injection, schedule: Q04DX003 (ip), vehicle: saline 89 % of control

N#CC1CC=CCC1 (configuration not stated)
inactive: dose: 6.25 mg/kg/injection, schedule: Q01DX009 (ip), vehicle: saline 113 % of control | dose: 6.25 mg/kg/injection, schedule: Q04DX003 (ip), vehicle: saline 101 % of control | dose: 12.5 mg/kg/injection, schedule: Q01DX009 (ip), vehicle: saline 121 % of control | dose: 12.5 mg/kg/injection, schedule: Q04DX003 (ip), vehicle: saline 90 % of control | dose: 25.0 mg/kg/injection, schedule: Q01DX009 (ip), vehicle: saline 103 % of control | dose: 25.0 mg/kg/injection, schedule: Q04DX003 (ip), vehicle: saline 113 % of control

CC(C)CCC[C@@H](C)[C@H]1CC[C@H]2[C@@H]3CC=C4C[C@@H](O)CC[C@]4(C)[C@H]3CC[C@]12C
inactive: [12] 92 % of control | [18] 94 % of control | [15] 97 % of control | [13] 95 % of control | [19] 91 % of control | [16] 89 % of control | [14] 92 % of control | dose: 400.0 mg/kg/injection, schedule: Q01DX009 (ip), vehicle: Klucel (hydroxypropylcellulose) (HPC) 92 % of control | [17] 94 % of control

O=c1[nH]nnc2ncn(C3OC(CO)C(O)C3O)c12 (configuration not stated)
inactive: dose: 100.0 mg/kg/injection, schedule: Q01DX005 (ip), vehicle: saline 91 % of control | dose: 200.0 mg/kg/injection, schedule: Q01DX005 (ip), vehicle: saline 87 % of control

CCN(CC)CCn1c2ccccc2c2cc3cnccc3c(C)c21
inactive: dose: 18.75 mg/kg/injection, schedule: Q01DX009 (ip), vehicle: saline 109 % of control | dose: 37.5 mg/kg/injection, schedule: Q01DX009 (ip), vehicle: saline 109 % of control | dose: 37.5 mg/kg/injection, schedule: Q04DX003 (ip), vehicle: Klucel (hydroxypropylcellulose) (HPC) 106 % of control | dose: 75.0 mg/kg/injection, schedule: Q01DX009 (ip), vehicle: saline 114 % of control | dose: 75.0 mg/kg/injection, schedule: Q04DX003 (ip), vehicle: Klucel (hydroxypropylcellulose) (HPC) 105 % of control | dose: 150.0 mg/kg/injection, schedule: Q01DX009 (ip), vehicle: saline 89 % of control | dose: 150.0 mg/kg/injection, schedule: Q04DX003 (ip), vehicle: Klucel (hydroxypropylcellulose) (HPC) 87 % of control

CC(C)(C)c1cc([N+](=O)[O-])cc([N+](=O)[O-])c1O
inactive: dose: 1.56 mg/kg/injection, schedule: Q01DX009 (ip), vehicle: saline with Tween-80 93 % of control | dose: 1.56 mg/kg/injection, schedule: Q04DX003 (ip), vehicle: saline with Tween-80 100 % of control | dose: 3.13 mg/kg/injection, schedule: Q01DX009 (ip), vehicle: saline with Tween-80 93 % of control | dose: 3.13 mg/kg/injection, schedule: Q04DX003 (ip), vehicle: saline with Tween-80 96 % of control | dose: 6.25 mg/kg/injection, schedule: Q01DX009 (ip), vehicle: saline with Tween-80 96 % of control | dose: 6.25 mg/kg/injection, schedule: Q04DX003 (ip), vehicle: saline with Tween-80 107 % of control

Cc1ccc(S(=O)(=O)F)cc1C(=O)NCc1ccc(OCc2nc(N)nc(N)c2-c2ccc(Cl)c(Cl)c2)cc1
inactive: dose: 32.5 mg/kg/injection, schedule: Q01DX001 (ip), vehicle: Klucel (hydroxypropylcellulose) (HPC) 96 % of control | dose: 65.0 mg/kg/injection, schedule: Q01DX001 (ip), vehicle: Klucel (hydroxypropylcellulose) (HPC) 96 % of control | dose: 130.0 mg/kg/injection, schedule: Q01DX001 (ip), vehicle: Klucel (hydroxypropylcellulose) (HPC) 96 % of control
